# Assay results published in PubChem BioAssay AID504330 (The Scripps Research Institute Molecular Screening Center, 2011).
# Calls of active or inactive are those of the source.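 Rule for the calls: active = EC50 at or below 10 µM; inactive = the rest.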
# Target: Caspase-7 (Homo sapiens) (UniProt P55210)
# Assay: potency of procaspase-7 enzyme activation – biochemical, absorbance, human, dual procaspase-3/-7 activator project, dose response (AID 504330)
# Conditions: recombinant procaspase-7 D3A, Ac-DEVD-pNA absorbance 405 nm
# Chain of Caspase-7 (Homo sapiens) (P55210 whole entry D23A/D198A/D206A): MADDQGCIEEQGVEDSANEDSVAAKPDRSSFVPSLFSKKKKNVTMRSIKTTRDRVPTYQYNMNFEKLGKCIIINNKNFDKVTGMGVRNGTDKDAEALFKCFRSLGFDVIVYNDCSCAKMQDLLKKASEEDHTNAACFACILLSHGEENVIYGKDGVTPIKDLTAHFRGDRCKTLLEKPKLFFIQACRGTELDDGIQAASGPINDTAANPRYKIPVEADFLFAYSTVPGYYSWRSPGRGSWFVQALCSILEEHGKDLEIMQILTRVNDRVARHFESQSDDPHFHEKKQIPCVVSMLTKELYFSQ
smiles,measurement,value
CCOc1ccc(N=CC2=C(O)CC(c3ccco3)CC2=O)cc1 (stereo unspecified),EC50,> 85.3 µM (inactive)
